Data from the supplement of paper PMC10307832.

Key:
Test in all cases: relative viability (nuclei count vs DMSO), 5 days (fraction); higher = more cells survive
[1] = compound: C(C(=O)C(=O)O)Br [Bromopyruvate] + CC(=O)c1c(C)c2cnc(Nc3ccc(N4CCNCC4)cn3)nc2n(C2CCCC2)c1=O [Palbociclib] (partner 0.5 µM)
How it was run: (§1)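 Lung cancer cell lines, seeded in 1536-well plates, were treated the following day by pin tool with a single drug or with five library-drug doses (not always all listed) in √10 steps on top of a fixed anchor-drug dose. Cells were fixed and nuclei stained in one step after 5 days, and nuclei were counted. Relative viability is the nuclei count for treated wells divided by that for vehicle wells, reported as medians of duplicate plates.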

[2] = compound: C(C(=O)C(=O)O)Br [Bromopyruvate] + CS(=O)(=O)CCNCc1ccc(-c2ccc3ncnc(Nc4ccc(OCc5cccc(F)c5)c(Cl)c4)c3c2)o1 [Lapatinib] (partner 2 µM)
How it was run: as §1

[3] = compound: CC(O)(CS(=O)(=O)c1ccc(F)cc1)C(=O)Nc1ccc(C#N)c(C(F)(F)F)c1 [Bicalutamide] + CCNC(=O)c1noc(-c2cc(C(C)C)c(O)cc2O)c1-c1ccc(CN2CCOCC2)cc1 [Luminespib] (partner 0.01 µM)
How it was run: as §1

[4] = compound: CC(O)(CS(=O)(=O)c1ccc(F)cc1)C(=O)Nc1ccc(C#N)c(C(F)(F)F)c1 [Bicalutamide] + Cc1cc(Nc2cc(N3CCN(C)CC3)nc(Sc3ccc(NC(=O)C4CC4)cc3)n2)n[nH]1 [Tozasertib] (partner 0.1 µM)
How it was run: as §1

Question: With UMC-11 as the cell line, how does the relative viability ([1]; first compound 1 µM) read?
Answer: Its relative viability is 0.343.

Question: What about the relative viability ([1]; first compound 3.162 µM) of the same cell line?
Answer: Its relative viability is 0.353.

Question: What about the relative viability ([1]; first compound 10 µM) of the same cell line?
Answer: The relative viability was 0.324.

Question: And the relative viability ([1]; first compound 31.62 µM)?
Answer: Its relative viability is 0.367.

Question: And the relative viability ([1]; first compound 100 µM)?
Answer: The relative viability was 0.356.

Question: And the relative viability ([2]; first compound 1 µM)?
Answer: The relative viability was 1.15.

Question: And the relative viability ([2]; first compound 3.162 µM)?
Answer: The relative viability was 0.976.

Question: What about the relative viability ([2]; first compound 10 µM) of the same cell line?
Answer: Its relative viability is 1.11.

Question: And the relative viability ([2]; first compound 31.62 µM)?
Answer: Its relative viability is 0.966.

Question: And the relative viability ([2]; first compound 100 µM)?
Answer: Its relative viability is 1.03.

Question: What about the relative viability ([3]; first compound 0.08 µM) of the same cell line?
Answer: The relative viability was 1.07.

Question: And the relative viability ([3]; first compound 0.253 µM)?
Answer: Its relative viability is 1.03.

Question: And the relative viability ([3]; first compound 0.8 µM)?
Answer: Its relative viability is 1.14.

Question: What about the relative viability ([3]; first compound 2.53 µM) of the same cell line?
Answer: Its relative viability is 0.949.

Question: What about the relative viability ([4]; first compound 0.08 µM) of the same cell line?
Answer: The relative viability was 0.193.

Question: And the relative viability ([4]; first compound 0.253 µM)?
Answer: The relative viability was 0.184.

Question: And the relative viability ([4]; first compound 0.8 µM)?
Answer: Its relative viability is 0.191.

Question: What about the relative viability ([4]; first compound 2.53 µM) of the same cell line?
Answer: Its relative viability is 0.191.
